In ChEMBL document CHEMBL5325415, “Falcipains: Biochemistry, target validation and structure-activity relationship studies of inhibitors as antimalarials” (Eur J Med Chem, 2023):
In brackets after ≈: the same amount, converted by molar mass.

Experiments:
Falcipain 2 [1] = target: T1, Falcipain 2 (Plasmodium falciparum, UniProt Q9N6S8); assay: Inhibition of Plasmodium falciparum FP-2 using Z-Leu-Arg-AMC as substrate pretreated with enzyme for 30 mins followed by substrate addition and measured for 30 mins by spectrofluorometry
T1 sequence (Q9N6S8 whole entry): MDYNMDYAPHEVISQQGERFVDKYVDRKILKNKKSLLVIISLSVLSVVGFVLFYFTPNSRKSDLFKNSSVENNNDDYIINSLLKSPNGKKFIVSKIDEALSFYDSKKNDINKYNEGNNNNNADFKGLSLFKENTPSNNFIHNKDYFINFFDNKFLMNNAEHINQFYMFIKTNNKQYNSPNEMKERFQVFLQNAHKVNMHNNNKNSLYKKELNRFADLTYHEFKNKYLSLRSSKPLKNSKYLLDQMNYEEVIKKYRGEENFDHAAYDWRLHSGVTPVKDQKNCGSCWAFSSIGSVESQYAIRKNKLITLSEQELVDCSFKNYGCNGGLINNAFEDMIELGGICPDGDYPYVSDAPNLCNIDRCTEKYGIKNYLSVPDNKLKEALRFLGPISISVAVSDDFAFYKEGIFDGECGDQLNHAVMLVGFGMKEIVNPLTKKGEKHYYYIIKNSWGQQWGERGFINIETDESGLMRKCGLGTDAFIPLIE

Plasmodium falciparum [2] = assay: Antiplasmodial activity against Plasmodium falciparum W2; assay type: functional, organism-based
Plasmodium falciparum [3] = assay: Antiplasmodial activity against Plasmodium falciparum D6; assay type: functional, organism-based
Plasmodium falciparum [4] = assay: Antiplasmodial activity against Plasmodium falciparum HB3; assay type: functional, organism-based
[5] = Inhibition of Plasmodium vinckei extracts VP-2 using Z-phe-Arg-AMC as substrate pretreated with enzyme for 30 mins followed by substrate addition and measured for 30 mins by spectrofluorometry
Plasmodium falciparum [6] = assay: Antiplasmodial activity against Plasmodium falciparum ItG; assay type: functional, organism-based
Plasmodium falciparum [7] = assay: Antiplasmodial activity against Plasmodium falciparum Dd2; assay type: functional, organism-based
Falcipain 2 [8] = target: T1, Falcipain 2; assay: Inhibition of Plasmodium falciparum Itg2 trophozite extracts FP-2 using Z-phe-Arg-AMC as substrate pretreated with enzyme for 30 mins followed by substrate addition and measured for 30 mins by spectrofluorometry
Plasmodium falciparum [9] = assay: Antiplasmodial activity against Plasmodium falciparum 3D7 infected in human erythrocytes assessed as growth inhibition measured after 52 hrs by SYBR green dye based assay; assay type: functional, organism-based; settings: 3D7, Erythrocyte
Falcipain 2 [10] = target: T1, Falcipain 2; assay: Inhibition of Plasmodium falciparum FP2 using ZFR-AMC as substrate preincubated with enzyme for 10 mins followed by substrate addition and measured for 30 mins by fluorimetric analysis
[11] = target: T2, Falcipain 2 (Plasmodium falciparum) (UniProt Q9N6S8); assay: Inhibition of Plasmodium falciparum FP-2 using Z-Leu-Arg-AMC as substrate at 10 uM pretreated with enzyme for 30 mins followed by substrate addition and measured for 30 mins by spectrofluorometry; settings: time 60.0 min
T2 sequence (whole entry): T1 sequence (Q9N6S8 whole entry)

Plasmodium falciparum [12] = assay: Antimalarial activity against chloroquine-resistant Plasmodium falciparum RKL9 infected in RBC measured after 24 to 30 hrs by microscopic analysis; assay type: functional, organism-based; settings: RKL9, Erythrocyte
Plasmodium falciparum [13] = assay: Antimalarial activity against Chloroquine-sensitive Plasmodium falciparum 3D7 infected in human erythrocytes assessed as inhibition of parasite growth incubated for 72 hrs by Giemsa staining based analysis; assay type: functional, organism-based; settings: 3D7, Erythrocyte
Plasmodium falciparum [14] = assay: Antimalarial activity against chloroquine-sensitive Plasmodium falciparum 3D7 infected in RBC measured after 24 to 30 hrs by microscopic analysis; assay type: functional, organism-based; settings: 3D7, Erythrocyte
Falcipain 2 [15] = target: T1, Falcipain 2; assay: Inhibition of Plasmodium falciparum FP-2 using Cbz-Phe-Arg-AMC as substrate pretreated with enzyme for 10 mins followed by substrate addition and measured after 10 mins by fluorescence based analysis
Plasmodium falciparum [16] = assay: Antimalarial activity against Chloroquine-resistant Plasmodium falciparum RKL9 infected in human erythrocytes assessed as inhibition of parasite growth incubated for 72 hrs by Giemsa staining based analysis; assay type: functional, organism-based; settings: RKL9, Erythrocyte

## CCOc1ccc(NC(=O)N/N=C/c2ccc(C(=O)O[C@@H]3O[C@@H]4O[C@@]5(C)CC[C@H]6[C@H](C)CC[C@@H]([C@H]3C)[C@@]46OO5)cc2)cc1
Falcipain 2 [1]
  IC50: 290 nM

## CC(C)C[C@H](NC(=O)N1CCN(C)CC1)C(=O)N[C@H](/C=C/S(=O)(=O)c1ccccc1)CCc1ccccc1
Plasmodium falciparum [2]
  IC50: 0.45 nM
Plasmodium falciparum [3]
  IC50: 0.58 nM
Plasmodium falciparum [4]
  IC50: 0.44 nM
[5]
  IC50: 200 nM
Plasmodium falciparum [6]
  IC50: 0.6 nM
Plasmodium falciparum [7]
  IC50: 0.4 nM
Falcipain 2 [8]
  IC50: 5 nM

## Fc1ccccc1-n1cc(COc2ccnc3cc(Cl)ccc23)nn1
Plasmodium falciparum [9]
  EC50: 66600 nM
Falcipain 2 [10]
  IC50: 107000 nM

## O=C(c1cc(-c2ccccc2)nc2ccccc12)N1CCN(S(=O)(=O)c2ccc(Cl)cc2Cl)CC1
Plasmodium falciparum [9]
  EC50: 20000 nM
Falcipain 2 [10]
  IC50: 4200 nM

## C=CCn1c(SCC(=O)Nc2sc3c(c2C(N)=O)CCC3)nc2scc(-c3ccc(Cl)cc3)c2c1=O
Falcipain 2 [1]
  IC50: 2950 nM
[11]
  inhibition: 85.7%

## Fc1ccc(-c2nn(-c3ccccc3)cc2/C=C/c2nnc(-c3c[nH]c4ccccc34)o2)cc1
Plasmodium falciparum [12]
  IC50: 1.37 µg/mL (≈ 3.07 µM)

## Fc1ccc(-n2cc(COc3ccnc4cc(Cl)ccc34)nn2)cc1F
Plasmodium falciparum [9]
  EC50: 21900 nM
Falcipain 2 [10]
  IC50: 25600 nM

## Fc1ccc(-n2cc(COc3ccnc4cc(Cl)ccc34)nn2)cc1Cl
Plasmodium falciparum [9]
  EC50: 406000 nM
Falcipain 2 [10]
  IC50: 45100 nM

## N#C/C(=C\c1cccc([N+](=O)[O-])c1)c1nc2ccccc2[nH]1
Plasmodium falciparum [13]
  IC50: 64800 nM

## Cc1ccc(NC(=O)N/N=C/c2ccc(O[C@H]3O[C@@H]4O[C@@]5(C)CC[C@H]6[C@H](C)CC[C@@H]([C@H]3C)[C@@]46OO5)cc2)c(C)c1
Falcipain 2 [1]
  IC50: 1030 nM

## COC(=O)c1ccc(CNC(=O)[C@@H](Cc2c[nH]c3ccccc23)NC(=O)Oc2ccccc2)cc1
Falcipain 2 [1]
  IC50: 13300 nM
[11]
  inhibition: 32.9%

## Cc1ccc(-c2nn(-c3ccccc3)cc2/C=C/c2nnc(-c3ccc(Cl)cc3Cl)o2)cc1
Plasmodium falciparum [14]
  IC50: 0.486 µg/mL (≈ 1.03 µM)
Plasmodium falciparum [12]
  IC50: 0.902 µg/mL (≈ 1.91 µM)
Falcipain 2 [15]
  IC50: 110000 nM

## O=[N+]([O-])c1ccc(-n2cc(COc3ccnc4cc(Cl)ccc34)nn2)cc1
Plasmodium falciparum [9]
  EC50: 49900 nM
Falcipain 2 [10]
  IC50: 16200 nM

## Fc1ccc(-n2cc(COc3ccnc4cc(Cl)ccc34)nn2)c(F)c1
Plasmodium falciparum [9]
  EC50: 159000 nM
Falcipain 2 [10]
  IC50: 25400 nM

## Cc1ccc(-c2nn(-c3ccccc3)cc2/C=C/c2nnc(-c3ccc(Cl)cc3)o2)cc1
Plasmodium falciparum [14]
  IC50: 0.486 µg/mL (≈ 1.11 µM)
Plasmodium falciparum [12]
  IC50: 1.57 µg/mL (≈ 3.58 µM)
Falcipain 2 [15]
  IC50: 20000 nM

## C[C@H]1[C@H](OC(=O)c2ccc(/C=N/NC(=O)Nc3ccccc3F)cc2)O[C@@H]2O[C@@]3(C)CC[C@H]4[C@H](C)CC[C@@H]1[C@@]24OO3
Falcipain 2 [1]
  IC50: 470 nM

## C[C@H]1[C@@H](Oc2ccc(/C=N/NC(=S)Nc3ccccc3F)cc2)O[C@@H]2O[C@@]3(C)CC[C@H]4[C@H](C)CC[C@@H]1[C@@]24OO3
Falcipain 2 [1]
  IC50: 2510 nM

## O=C(N[C@H](/C=C/S(=O)(=O)c1ccccc1)CCc1ccccc1)[C@H](Cc1ccccc1)NC(=O)N1CCOCC1
[5]
  IC50: 100 nM
Falcipain 2 [8]
  IC50: 80 nM

## C=CCn1c(SCC(=O)Nc2sc3c(c2C(N)=O)CCC3)nc2sc3c(c2c1=O)CCCC3
Falcipain 2 [1]
  IC50: 5770 nM
[11]
  inhibition: 82.2%

## N#C/C(=C\c1cccc(Br)c1)c1nc2ccccc2[nH]1
Plasmodium falciparum [13]
  IC50: 14400 nM
Plasmodium falciparum [16]
  IC50: 43400 nM

## CC(C)C[C@H](NC(=O)N1CCOCC1)C(=O)N[C@H](/C=C/S(=O)(=O)c1ccccc1)CCc1ccccc1
Plasmodium falciparum [2]
  IC50: 1.2 nM
Plasmodium falciparum [3]
  IC50: 1.51 nM
Plasmodium falciparum [4]
  IC50: 1.6 nM
[5]
  IC50: 200 nM
Plasmodium falciparum [6]
  IC50: 1.03 nM
Plasmodium falciparum [7]
  IC50: 0.66 nM

## Oc1ccc(-c2nccc3ccc(Cc4ccccc4)cc23)cc1
Falcipain 2 [8]
  IC50: 8000 nM

## C=CCn1c(SCC(=O)Nc2sc3c(c2C(N)=O)CCC3)nc2scc(-c3cccc([N+](=O)[O-])c3)c2c1=O
Falcipain 2 [1]
  IC50: 11800 nM
[11]
  inhibition: 53%

## Cc1ccc(NC(=S)N/N=C/c2ccc(O[C@H]3O[C@@H]4O[C@@]5(C)CC[C@H]6[C@H](C)CC[C@@H]([C@H]3C)[C@@]46OO5)cc2)c(C)c1
Falcipain 2 [1]
  IC50: 1350 nM

## NC(=O)c1c(NC(=O)CSc2nc3scc(-c4ccccc4)c3c(=O)n2C2CCCCC2)sc2c1CCC2
Falcipain 2 [1]
  IC50: 1460 nM
[11]
  inhibition: 92.7%
